From patent US20250059205A1, “Heterocyclic Compounds and Methods of Use” (AMGEN INC., priority 2021, published 2025) come the findings set out here.

In test [1] the target is His-tagged KRAS G12D protein (Homo sapiens, UniProt P01116, G12D). As to the kind of experiment: KRAS G12D TR-FRET Assay. Format: binding. Background: In TR-FRET formats the signal depends on donor and acceptor labels being close together.
In test [2] the target is GDP-bound KRAS protein (aa 1-169), containing both G12D and C118A amino acid substitutions (Homo sapiens, UniProt P01116, C118A/G12D). As to the kind of experiment: KRAS G12D Coupled Nucleotide Exchange Assay. Format: biochemical. The note with it: 2 h compound pre-incubation. How it is done: Following compound pre-incubation, purified SOS protein (aa 564-1049) and GTP (Roche 10106399001) were added to the assay wells and incubated for an additional 30 min. […] The assay plates were then read on a PerkinElmer EnVision Multilabel Reader, using AlphaScreen® technology, and data were analyzed using a 4-parameter logistic model to calculate IC50 values.
Chain of GDP-bound KRAS protein (aa 1-169), containing both G12D and C118A amino acid substitutions (P01116 1-169 isoform P01116-2 G12D/C118A): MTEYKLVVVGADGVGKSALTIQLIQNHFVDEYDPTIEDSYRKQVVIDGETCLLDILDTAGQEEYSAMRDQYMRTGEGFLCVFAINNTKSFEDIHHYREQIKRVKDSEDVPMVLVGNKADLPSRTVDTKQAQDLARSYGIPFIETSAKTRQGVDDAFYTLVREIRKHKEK

Test [3] concerns Phosphorylation of ERK1/2 in A-427 cells. As to the kind of experiment: Phospho-ERK1/2 MSD Assay (A-427 cells). Format: cell-based. The note with it: Homo sapiens, A-427, 2 h, 2 h treatment, read-out: p-ERK (A427 cells) IC50. In a few lines:
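ERK1/2 phosphorylation measured by Meso Scale whole-cell lysate assay after A-427 cells were exposed to a titration of compound for 2 h at 37 °C.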

Test [4] deals with Phosphorylation of ERK1/2 in AsPC-1 cells. As to the kind of experiment: Phospho-ERK1/2 MSD Assay (AsPC-1 cells). To be noted: Homo sapiens, ASPC1, 2 h, 2 hours treatment, read-out: p-ERK (AsPC-1 cells) IC50. Format: cell-based. An outline of the steps: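 Read-out: MSD electrochemiluminescent detection of phosphorylated ERK1/2 in whole-cell lysates, fitted to a 4-parameter logistic curve for IC50. Prior to lysis, AsPC-1 cells (25,000 per well) received a 2 h compound dose-response at 37 °C.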

By IC50 is commonly meant the concentration needed to halve the response being measured.

Chain of His-tagged KRAS G12D protein (P01116 1-188 isoform P01116-2 G12D): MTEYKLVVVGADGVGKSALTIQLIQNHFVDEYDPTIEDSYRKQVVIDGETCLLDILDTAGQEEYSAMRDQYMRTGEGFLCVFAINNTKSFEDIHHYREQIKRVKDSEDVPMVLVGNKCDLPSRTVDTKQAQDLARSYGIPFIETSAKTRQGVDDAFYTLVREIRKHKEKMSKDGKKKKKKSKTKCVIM

Regarding `CCc1cccc2cc(O)cc(-c3c(F)cc4c(N5C[C@H]6CC[C@@H](C5)N6)nc(OC[C@@]56CCCN5C[C@H](F)C6)nc4c3F)c12` [Example 147, 4-(4-((1R,5S)-3,8-diazabicyclo[3.2.1]octan-3-yl)-6,8-difluoro-2-(((2R,7aS)-2-fluorotetrahydro-1H-pyrrolizin-7a(5H)-yl)methoxy)quinazolin-7-yl)-5-ethylnaphthalen-2-ol], the half-maximal inhibitory concentration (IC50) in test [1] worked out at 3 nM; in test [3], 3 nM; in test [4], 25 nM. In addition, in test [2], the “Avg 2 h Coupled Exchange IC50” value is 2 nM.

In the case of `Oc1cc(-c2c(Cl)cc3c(N4C[C@H]5CC[C@@H](C4)N5)nc(OC[C@@]45CCCN4C[C@H](F)C5)nc3c2F)c2c(F)c(F)ccc2c1` [Example 81, 4-(4-((1R,5S)-3,8-diazabicyclo[3.2. 1]octan-3-yl)-6-chloro-8-fluoro-2-(((2R,7aS)-2-fluorotetrahydro-1H-pyrrolizin-7a(5H)-yl)methoxy)quinazolin-7-yl)-5,6-difluoronaphthalen-2-ol], the figures for the 50% inhibitory concentration (IC50) in test [1], in test [3] and in test [4] were 3 nM, 30 nM and 99 nM, respectively. Besides, in test [2], the “Avg 2 h Coupled Exchange IC50” value is 4 nM.

`Oc1cc(-c2c(Cl)cc3c(N4C[C@H]5CC[C@@H](C4)N5)nc(OC[C@@]45CCCN4C[C@H](F)C5)nc3c2F)c2c(Cl)cccc2c1` [Example 86, 4-(4-((1R,5S)-3,8-diazabicyclo[3.2. 1]octan-3-yl)-6-chloro-8-fluoro-2-(((2R,7aS)-2-fluorotetrahydro-1H-pyrrolizin-7a(5H)-yl)methoxy)quinazolin-7-yl)-5-chloronaphthalen-2-ol]: the half-inhibitory concentration (IC50) in test [1] came to 4 nM; in test [3] it was 54 nM; in test [4], 149 nM. In addition, the “Avg 2 h Coupled Exchange IC50” value in test [2] stood at 2 nM.

As for `Cc1ccc2cnn(C)c2c1-c1c(F)cc2c(N3C[C@H]4CC[C@@H](C3)N4)nc(OC[C@@]34CCCN3C[C@H](F)C4)nc2c1F` [Example 164, 4-((1R,5S)-3,8-diazabicyclo[3.2.1]octan-3-yl)-7-(1,6-dimethyl-1H-indazol-7-yl)-6,8-difluoro-2-(((2R,7aS)-2-fluorotetrahydro-1H-pyrrolizin-7a(5H)-yl)methoxy) quinazoline], the IC50 in test [1] came to 7 nM; in test [3], 862 nM; in test [4] it was 725 nM. The “Avg 2 h Coupled Exchange IC50” value in test [2] is 6 nM.

With `Oc1cc(-c2c(Cl)cc3c(N4C[C@H]5CC[C@@H](C4)N5)nc(OC[C@]45CCCN4C[C@H](F)C5)nc3c2F)c2ccccc2c1` [Example 51, 4-(4-((1R,5S)-3,8-diazabicyclo[3.2. 1]octan-3-yl)-6-chloro-8-fluoro-2-(((2R,7aR)-2-fluorotetrahydro-1H-pyrrolizin-7a(5H)-yl)methoxy)quinazolin-7-yl)naphthalen-2-ol], the results for the IC50 in test [1], in test [3] and in test [4] were 3 nM, 136 nM and 185 nM, respectively. For the same compound, the “Avg 2 h Coupled Exchange IC50” value in test [2] came to 1 nM.

As for `CCc1c(F)ccc2cc(O)cc(-c3ccc4c(N5C[C@H]6CC[C@@H](C5)N6)nc(OC[C@@]56CCCN5C[C@H](F)C6)nc4c3C)c12` [Example 95, 4-(4-((1R,5S)-3,8-diazabicyclo[3.2. 1]octan-3-yl)-2-(((2R,7aS)-2-fluorotetrahydro-1H-pyrrolizin-7a(5H)-yl)methoxy)-8-methylquinazolin-7-yl)-5-ethyl-6-fluoronaphthalen-2-ol], the IC50 in test [1] is 10 nM; in test [3], 199 nM; in test [4], 230 nM. Besides, the “Avg 2 h Coupled Exchange IC50” value in test [2] worked out at 10 nM.

Take `Cc1c(-c2cc(O)cc3ccccc23)ccc2c(N3[C@@H]4CC[C@H]3CNC4)nc(OC[C@@]34CCCN3C[C@H](F)C4)nc12` [Example 34, 4-(4-((1R,5S)-3,8-diazabicyclo[3.2. 1]octan-8-yl)-2-(((2R,7aS)-2-fluorotetrahydro-1H-pyrrolizin-7a(5H)-yl)methoxy)-8-methylquinazolin-7-yl)naphthalen-2-ol]: the IC50 in test [1] stood at 47 nM; in test [3] it was 2570 nM; in test [4], 2980 nM. Besides, the “Avg 2 h Coupled Exchange IC50” value in test [2] came out at 22 nM.

In the case of `Oc1cc(-c2c(F)cc3c(N4C[C@H]5CC[C@@H](C4)N5)nc(OC[C@@]45CCCN4C[C@H](F)C5)nc3c2F)c2c(F)cccc2c1` [Example 159, 4-(4-((1R,5S)-3,8-diazabicyclo[3.2.1]octan-3-yl)-6,8-difluoro-2-(((2R,7aS)-2-fluorotetrahydro-1H-pyrrolizin-7a(5H)-yl)methoxy)quinazolin-7-yl)-5-fluoronaphthalen-2-ol], the values for the IC50 in test [1], in test [3] and in test [4] were 3 nM, 13 nM and 77 nM, respectively. Further, the “Avg 2 h Coupled Exchange IC50” value in test [2] was 5 nM.

Take `Oc1cc(-c2ccc3c(N4C[C@H]5CC[C@@H](C4)N5)nc(OC[C@@]45CCCN4C[C@H](F)C5)nc3c2F)c2c(F)c(F)ccc2c1` [Example 142, 4-(4-((1R,5S)-3,8-diazabicyclo[3.2.1]octan-3-yl)-8-fluoro-2-(((2R,7aS)-2-fluorotetrahydro-1H-pyrrolizin-7a(5H)-yl)methoxy)quinazolin-7-yl)-5,6-difluoronaphthalen-2-ol]: the results for the IC50 in test [1], in test [3] and in test [4] were 2 nM, 6 nM and 19 nM, respectively. Further, in test [2], the “Avg 2 h Coupled Exchange IC50” value turned out to be 2 nM.

With `CCc1c(F)ccc2cc(O)cc(-c3cc(F)c4c(N5C[C@H]6CC[C@@H](C5)N6)nc(OC[C@@]56CCCN5C[C@H](F)C6)nc4c3F)c12` [Example 231, 4-(4-((1R,5S)-3,8-diazabicyclo[3.2.1]octan-3-yl)-5,8-difluoro-2-(((2R,7aS)-2-fluorotetrahydro-1H-pyrrolizin-7a(5H)-yl)methoxy)quinazolin-7-yl)-5-ethyl-6-fluoronaphthalen-2-ol], the IC50 in test [1] was found to be 4 nM; in test [3], 15 nM; in test [4], 68 nM. In test [2], the “Avg 2 h Coupled Exchange IC50” value is 5 nM.

With `Oc1cc(-c2c(F)cc3c(N4C[C@H]5CC[C@@H]4CN5)nc(OC[C@@]45CCCN4C[C@H](F)C5)nc3c2F)c2ccccc2c1Cl` [Example 206, 4-(4-((1R,4R)-2,5-Diazabicyclo[2.2.2]octan-2-yl)-6,8-difluoro-2-(((2R,7aS)-2-fluorotetrahydro-1H-pyrrolizin-7a(5H)-yl)methoxy)quinazolin-7-yl)-1-chloronaphthalen-2-ol], the IC50 in test [1] was determined as 30 nM; in test [3] it was 116 nM; in test [4], 705 nM. Moreover, in test [2], the “Avg 2 h Coupled Exchange IC50” value is 42 nM.

Regarding `N#Cc1cccc2cc(O)cc(-c3c(F)cc4c(N5C[C@H]6CC[C@@H](C5)N6)nc(OC[C@@]56CCCN5C[C@H](F)C6)nc4c3F)c12` [Example 204, 8-(4-((1R,5S)-3,8-Diazabicyclo[3.2.1]octan-3-yl)-6,8-difluoro-2-(((2R,7aS)-2-fluorotetrahydro-1H-pyrrolizin-7a(5H)-yl)methoxy)quinazolin-7-yl)-6-hydroxy-1-naphthonitrile], the concentration for half-maximal inhibition (IC50) in test [1] was 2 nM; in test [3], 26 nM; in test [4], 98 nM. Besides, the “Avg 2 h Coupled Exchange IC50” value in test [2] was 3 nM.

As to `CCc1c(F)ccc2cc(O)cc(-c3c(F)cc4c(N5C[C@H]6CC[C@@H](C5)N6)nc(OCc5nccn5C)nc4c3F)c12` [Example 213, 4-(4-((1R,5S)-3,8-diazabicyclo[3.2.1]octan-3-yl)-6,8-difluoro-2-((1-methyl-1H-imidazol-2-yl)methoxy)quinazolin-7-yl)-5-ethyl-6-fluoronaphthalen-2-ol], the IC50 in test [1] turned out to be 11 nM; in test [3], 1460 nM; in test [4], 2300 nM. In addition, in test [2], the “Avg 2 h Coupled Exchange IC50” value worked out at 6 nM.

With `C#Cc1cccc2cccc(-c3c(F)cc4c(N5[C@@H]6CC[C@H]5CNC6)nc(OC[C@@]56CCCN5C[C@H](F)C6)nc4c3F)c12` [Example 100, 4-((1R,5S)-3,8-Diazabicyclo[3.2.1]octan-8-yl)-7-(8-ethynylnaphthalen-1-yl)-6,8-difluoro-2-(((2R,7aS)-2-fluorotetrahydro-1H-pyrrolizin-7a(5H)-yl)methoxy)quinazoline], the IC50 in test [1] came to 8 nM; in test [3] it was 945 nM; in test [4] it was 663 nM. For the same compound, the “Avg 2 h Coupled Exchange IC50” value in test [2] worked out at 6 nM.

Take `CN1C[C@H](F)C[C@H]1COc1nc(N2C[C@H]3C[C@@H](C2)N3)c2cc(F)c(-c3cc(O)cc4ccccc34)c(F)c2n1` [Example 19, 4-(4-((1R,5S)-3,6-diazabicyclo[3.1. 1]heptan-3-yl)-6,8-difluoro-2-(((2S,4R)-4-fluoro-1-methylpyrrolidin-2-yl)methoxy)quinazolin-7-yl)naphthalen-2-ol]: the IC50 in test [1] stood at 58 nM; in test [3], 1790 nM; in test [4], 2090 nM. In addition, the “Avg 2 h Coupled Exchange IC50” value in test [2] came to 28 nM.

`Oc1cc(-c2c(Cl)cc3c(N4C[C@H]5CC[C@@H](C4)N5)nc(OC[C@@]45CCCN4C[C@H](F)C5)nc3c2F)c2c(F)cccc2c1` [Example 137, 4-(4-((1R,5S)-3,8-diazabicyclo[3.2.1]octan-3-yl)-6-chloro-8-fluoro-2-(((2R,7aS)-2-fluorotetrahydro-1H-pyrrolizin-7a(5H)-yl)methoxy)quinazolin-7-yl)-5-fluoronaphthalen-2-ol]: the IC50 in test [1] is 37 nM; in test [3] it was 411 nM; in test [4], 1710 nM. In addition, the “Avg 2 h Coupled Exchange IC50” value in test [2] was found to be 34 nM.
